Experimental data published in article PMC12459314, “Subcutaneous administration of a novel TRPM8 antagonist reverses cold hypersensitivity while attenuating the drop in core body temperature” (British journal of pharmacology, 2024).
Where “and” joins values, the source holds several entries; their conditions need not be identical. Equal values may be shown once. Read-outs that look alike come from different tables or passages of the source.

Tests used:
[1] = target: T1, μ opioid receptor (OPRM1) (Homo sapiens, UniProt P35372); test: Eurofins DiscoverX opioid receptor assays (SAFETYscan; HitHunter cAMP), OPRM1; assay type: cell-based
T1 construct: purchased Eurofins DiscoverX (SAFETYscan; gpcrSCAN; HitHunter cAMP XS+)
Procedure: (§1) Assessment of the safety profile of VBJ103 across 78 assays using recombinant human targets was performed with the SAFETYscan E/IC50 ELECT service by Eurofins DiscoverX (San Diego, CA, USA). […] The assays were performed utilizing PathHunter enzyme fragment complementation (EFC) technology, FLIPR®-based cellular screening assays, KINOMEscan kinase binding assays and a variety of enzymatic assays. Further potential functional activity at opioid receptors was performed in the gpcrSCAN service by Eurofins DiscoverX. Hit Hunter® cAMP assays were carried out using Enzyme Fragment Complementation (EFC) with β-galactosidase (β-Gal) as the functional reporter.
(§2) Assessment of potential positive allosteric modulator (PAM) activity at μ, δ and κ opioid receptors was performed with the DiscoverX HitHunter cAMP XS+ assay by Eurofins DiscoverX (San Diego, CA, USA).

[2] = parameters: method as in Journigan et al., 2020; details: intraplantar administration; ref Journigan et al., 2020; cited from earlier work
[3] = Brain levels in vivo by UPLC-MS/MS; parameters: species or system rat
Procedure: VBJ103 levels in the brain were determined by PsychoGenics Inc (Paramus, USA). VBJ103 and vehicle solutions were administered subcutaneously at a dose of 100 mg·kg^−1. Male and female Sprague–Dawley rats (200–250 g) supplied by Envigo were used in this study and housed three per cage (26 cm × 47.6 cm × 20.3 cm) upon arrival. Rats with jugular vein catheters (JVC) were housed two per cage with a divider to prevent damage to catheters. Cages contained BedO’-Cob® bedding with Nylabones® for enrichment. Rats were acclimatised for 2 to 7 days prior to commencing studies. All rats were examined, handled and weighed prior to initiation of the study to assure adequate health and suitability. During the course of the study, 12/12 light/dark cycles were maintained with lights on at 6 AM. The room temperature was maintained between 20°C and 23°C with a relative humidity maintained around 50%. Chow (Lab diet 5001, LabDiet, St. Louis, MO, USA) and water were provided ad libitum throughout the acclimatisation period and during the treatment and collection period. Rats were randomly assigned to the experimental groups.
UPLC-MS/MS analysis was performed on a ODS 3 Inertsil C18 column 2.1 × 50 mm, 2 μm (GL Sciences 5020–84652), using a gradient of 40:60 solvent A (H2O + 0.5% formic acid):solvent B (ACN + 1.0% formic acid) → 0:100 for 2 min at a flow rate of 0.5 ml·min^−1. The following parameters were used: injection volume 5 μl, column temperature 40°C, pre-column temperature 40°C and sample temperature 4°C. Eluted peaks were monitored with a Waters Xevo TQ-XS coupled to an Acquity i-Class Plus UPLC setup (range: 334.19 Da to 155.04 and 198.08 Da). RT = 1.15 min. The range of quantitation was 0.25 to 10,000 ng·ml^−1 for brain. The software Masslynx V4.2 SCN1012 was used for instrument control and data acquisition.
Brain collection was performed via live decapitation. Whole brains were collected at 1 h following administration and upon completion of serial collections (24 h). Resultant brains were rinsed in saline and frozen immediately on a cold plate (−77°C) before placement into a pre-weighed specimen container. Brain weights were then determined prior to placement of the samples on dry ice followed by relocation to a −80°C freezer pending bioanalysis.
Pre-weighed whole brain tissue was homogenized (Omni Prep multichannel tissue homogenizer) using a 1:1 MilliQ water (containing 0.2% acetic acid)/acetonitrile mixture which was added to the brain using a 4:1 solution to brain ratio. Subsequently, the homogenate was centrifuged for 10 min at 4°C at a speed of 2688 g. Three 25-μl aliquots out of the top layer of the centrifuged homogenate were crashed into three QuanRecovery wells, each containing 150 μl of acetonitrile/internal standard. The crash was then centrifuged for 20 min at 2688 g while maintaining a temperature of 4°C. Mixing of the resultant supernatant with water (3:2) provided samples for triplicate analysis. Brain standards, quality controls (QCs) and blanks were prepared using a male Sprague–Dawley brain acquired from BioIVT using the same protocol outlined above. All standards, QCs, samples and blanks were then loaded onto the UPLC-MS/MS for analysis.
The concentration of VBJ103/mass was based on brain weights. The volume of the homogenate was based on a 4:1 dilution of the brains. The volumes of homogenate was calculated based on brain weights in Table S13.

[4] = Partition coefficient (logD), shake flask method; assay type: physicochemical; details: n-octanol / pH 7.4 phosphate buffer, pH 7.4
Procedure: The partition coefficient (logD) at pH 7.4 of VBJ103 was determined using the shake flask method by Absorption Systems (Exton, PA, USA). The buffer was prepared by combining 50 ml of 0.2-M solution of KH2PO4 with 150 ml of dH2O and then adjusting to pH 7.4 with 10-N NaOH. In a single incubation, 15 μl of a 10-mM DMSO solution of each test article was added to test tubes which contained 0.75 ml of n-octanol and 0.75 ml of pH 7.4 phosphate buffer. Testosterone was also introduced to each tube as an internal control, also at a dosing concentration of 100 μM. These samples were gently mixed on a benchtop rotator for 1 h at room temperature. The tubes were then removed from the rotator, and the aqueous and organic phases were allowed to separate for 1 h. An aliquot of the organic layer was taken and diluted 200-fold into a mixture of 1:1 buffer: acetonitrile (ACN). An aliquot of the aqueous layer was taken and diluted 2-fold, 10-fold and 200-fold into a mixture of 1:1 buffer: ACN. All samples were assayed by LC–MS/MS on a Thermo BDS Hypersil C18 column (30 × 2.1 mm, 3 μm) using electrospray ionization, as previously reported ([Journigan et al., 2020]).

[5] = ref Journigan et al, 2020; cited from earlier work
[6] = target: T2, κ opioid receptor (OPRK1) (Homo sapiens, UniProt P41145); test: Eurofins DiscoverX opioid receptor assays (SAFETYscan; HitHunter cAMP), OPRK1; assay type: cell-based
T2 construct: purchased Eurofins DiscoverX (SAFETYscan; gpcrSCAN; HitHunter cAMP XS+)
Procedure: as §1, §2

T1 sequence (P35372 whole entry): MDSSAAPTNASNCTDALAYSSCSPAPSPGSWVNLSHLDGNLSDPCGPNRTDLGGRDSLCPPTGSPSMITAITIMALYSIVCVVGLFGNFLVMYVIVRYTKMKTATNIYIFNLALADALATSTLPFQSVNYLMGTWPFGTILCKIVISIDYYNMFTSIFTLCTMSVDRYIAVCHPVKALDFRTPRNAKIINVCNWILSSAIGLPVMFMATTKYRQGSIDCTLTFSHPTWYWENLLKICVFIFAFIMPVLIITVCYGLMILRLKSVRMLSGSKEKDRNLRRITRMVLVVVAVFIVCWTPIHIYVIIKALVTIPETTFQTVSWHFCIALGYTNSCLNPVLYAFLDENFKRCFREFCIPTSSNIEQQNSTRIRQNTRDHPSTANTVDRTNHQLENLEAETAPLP
T2 sequence (P41145 whole entry): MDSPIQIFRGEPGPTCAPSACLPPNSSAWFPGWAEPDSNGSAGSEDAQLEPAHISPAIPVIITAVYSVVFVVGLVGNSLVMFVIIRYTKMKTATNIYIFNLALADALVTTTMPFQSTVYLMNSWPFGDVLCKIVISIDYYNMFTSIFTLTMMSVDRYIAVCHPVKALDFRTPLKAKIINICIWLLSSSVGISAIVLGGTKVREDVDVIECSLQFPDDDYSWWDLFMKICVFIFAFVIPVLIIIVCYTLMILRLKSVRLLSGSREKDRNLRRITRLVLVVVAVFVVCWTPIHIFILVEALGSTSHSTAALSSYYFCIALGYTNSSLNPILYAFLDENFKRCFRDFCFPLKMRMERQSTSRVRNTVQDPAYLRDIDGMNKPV

O=C(NC1CCC2(CCCC2)CC1)c1ccc(-c2ccccc2)cc1 [VBJ103, N-(Spiro[4.5]decan-8-yl)-[1,1′-biphenyl]-4-carboxamide]
Emax ([1]; OPRM1, Positive Allosteric Modulator format, read-out: Max Response, cAMP): 14.5%
EC50 ([1]; read-out: RC50 (EC50), cAMP): > 100 µM
activity at μ opioid receptor ([1]; safety panel): no activity
oxaliplatin-induced hypersensitivity to non-noxious cooling (acetone drop) [2]: dose-dependently suppresses
concentration at 1 h ([3]; female SD rats (animals 13-16), 100 mg/kg SC, 24 h, 100 mg/kg, read-out: brain levels, individual animals): 14.6 nM and 11.9 nM and 7.1 nM and 8.1 nM
concentration at 1 h ([3]; female SD rats (animals 26-28), 100 mg/kg SC, 1 h, 100 mg/kg, read-out: brain levels, individual animals): 39 nM and 51 nM
concentration at 1 h ([3]; female, Sprague-Dawley, rat, brain, sc, 100 mg/kg, female SD rats (animals 26-28), 100 mg/kg SC, 1 h, read-out: brain levels, individual animals): 40 nM
concentration at 1 h ([3]; female, Sprague-Dawley, rat, brain, sc, 100 mg·kg^−1, female rats, 100 mg·kg−1 s.c., 1 h per Table S12, read-out: mean brain concentration): 43 ± 4 nM
concentration at 1 h ([3]; male SD rats (animals 9-12), 100 mg/kg SC, 24 h, 100 mg/kg, read-out: brain levels, individual animals): 6.9 nM and 7.9 nM and 3.9 nM and 4.9 nM
concentration at 1 h ([3]; male SD rats (animals 23-25), 100 mg/kg SC, 1 h, 100 mg/kg, read-out: brain levels, individual animals): 47 nM and 56 nM
concentration at 1 h ([3]; male, Sprague-Dawley, rat, brain, sc, 100 mg/kg, male SD rats (animals 23-25), 100 mg/kg SC, 1 h, read-out: brain levels, individual animals): 53 nM
concentration at 1 h ([3]; male, Sprague-Dawley, rat, brain, sc, 100 mg·kg^−1, male rats, 100 mg·kg−1 s.c., 1 h per Table S12, read-out: mean brain concentration): 52 ± 2 nM
logD at 1 h [4]: 3.21
Mouse Liver microsomes, T1/2 [5]: 30 min
Emax ([6]; Positive Allosteric Modulator format, read-out: Max Response, cAMP): 19.7%
EC50 ([6]; read-out: RC50 (EC50), cAMP): > 100 µM
activity at κ opioid receptor ([6]; safety panel): no activity
